Experiments:
[1] = system: IL-17A-induced G-CSF production in human normal keratinocyte (NHK); assay: NHK Assay: IL-17A-induced G-CSF production in human normal keratinocyte; format: cell-based; conditions: 24 h, IL-17A 5 ng/mL, simple average if tested more than once
Description: IL-17A acts directly on keratinocytes through binding to dimeric receptor IL-17RA/RC and drives the production of a number of inflammatory mediators known to be elevated in psoriasis lesional tissue. IL-17A small molecule inhibitors that block the IL-17A to interact with IL-17R would inhibit the IL-17A signaling in its targeted cells such as keratinocytes. The compound functional activity is evaluated for its impact on IL-17A-induced G-CSF production in human normal keratinocyte (NHK).
Adult normal human keratinocytes are cultured in keratinocyte growth medium (Lonza) in a flask till reaching ˜90% confluence, then cells are transferred to a 384-well plate at density of 3000-4000 cell/well. Recombinant human IL-17A (Gibco PHC9174) is pre-incubated with titrated compound or DMSO for 1 h at rt then added to the cell culture plate. The final concentration of IL-17A is 5 ng/mL and DMSO is 0.2%, in the culture containing 5% FBS. Cells are cultured/treated for 24 h at 37° C. Supernatants are collected and G-CSF production is measured through HTRF technology using Human G-CSF Kit (CisBio). G-CSF concentration was extrapolated from the standard curve and IC50 is determined using GraphPad Prism. Cell viability is also evaluated using CellTiter-Glo kit (Promega) and effect of compound on cell viability is compared to DMSO control.

[2] = biological target: IL-17A(FLAG-Tagged): IL-17RA(His-Tagged) (Homo sapiens, UniProt Q16552, K93Q); assay: IL-17A(FLAG-Tagged): IL-17RA(His-Tagged) Binding Disruption Eu-HTRF Assay, Protocol 1; conditions: Protocol 1, FLAG tagged IL-17A 2.5 nM; simple average if tested more than once
Chain of UniProt Q16552 (Q16552 with tags, fused parts or gaps K93Q): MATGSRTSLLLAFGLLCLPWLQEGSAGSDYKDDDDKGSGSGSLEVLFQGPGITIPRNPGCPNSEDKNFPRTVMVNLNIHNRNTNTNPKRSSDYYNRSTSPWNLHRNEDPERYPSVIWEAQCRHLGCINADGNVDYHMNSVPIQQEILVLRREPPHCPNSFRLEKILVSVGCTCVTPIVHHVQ
Source text: An antibody directed against the FLAG tag of IL-17A (SEQ ID NO: 1) is labeled with the HTRF donor chromophore (Europium-cryptate). IL-17A is present as a dimer that is “locked into” this quaternary structure due to the formation of loop-spanning […] disulfide bridges. The construct of IL-17RA used in the assay excludes the […] portion of the receptor and is fused to a C-terminal 10×His tag (SEQ ID NO:2). An antibody directed against the His tag of the IL-17RA chimera is labeled with the HTRF acceptor chromophore (“D2”). The fluorescence-resonance energy transfer (FRET) depends on the vicinity of the donor chromophore to the acceptor, and interruption of the binding between the IL-17A and IL-17RA causes the reduction/loss of FRET. Therefore, this assay allows to evaluate the compound effect on the binding IL-17A and IL-17RA by monitoring the fluorescence intensity of donor vs acceptor. The assay was run using either Protocol 1 or Protocol 2 as described below.
Protocol 1. 40 nl of 2-fold serial diluted compound solution for total 22 dilution points is added into each well of a 1536-well, white, low-volume, non-binding plate (Greiner #782904), then 2 μl of FLAG tagged IL-17A at 2× final concentration (2.5 nM) in solution of PBS+0.01% Triton-X100 is added to each well. The assay plate is briefly centrifuged then incubated for 1 h at rt. A mixed solution is prepared containing 2×5 nM 10HIS×IL-17RA, 2×2.5 nM Eu-anti-FLAG (CISBIO), 2×5 nM D2-anti-HIS (CISBIO) in PBS+0.01% Triton-X100+200 mM Potassium Fluoride (Sigma 60238) and 2 μl of mix is added to each well of the assay plate. The plate is briefly centrifuged then incubated for 2 h at rt. The HTRF intensities at the wavelength of donor (620 nm) and acceptor (665 nm) are measured using BMG Pherastar. The ratio between intensities at two wavelengths is calculated and plotted against the compound concentration and the data is fitted to a one-site competition model to yield IC50 of the compound.

IC50 [2] | SMILES | IC50 ([1]; Homo sapiens, Keratinocyte) | IC50 [1]
> 100 nM | COCC(c1ccc2[nH]c([C@H](COC(C)(C)C(F)(F)F)NC(=O)c3nonc3C)nc2c1)N1CC(C)(C)NC1=O (single isomer, unassigned) [Example 49, N—((R)-1-(5-((S*)-1-(4,4-Dimethyl-2-oxoimidazolidin-1-yl)-2-methoxyethyl)-1H-benzo[d]imidazol-2-yl)-2-((1,1,1-trifluoro-2-methylpropan-2-yl)oxy)ethyl)-4-methyl-1,2,5-oxadiazole-3-carboxamide] | – | > 100 nM
< 50 nM | Cc1nonc1C(=O)N[C@@H](COC(C)(C)C(F)(F)F)c1nc2cc([C@@H](C3CC3)N3CC4(CC4)NC3=O)ccc2[nH]1 [Example 87, N—((R)-1-(5-((R)-Cyclopropyl(5-oxo-4,6-diazaspiro[2.4]heptan-6-yl)methyl)-1H-benzo[d]imidazol-2-yl)-2-((1,1,1-trifluoro-2-methylpropan-2-yl)oxy)ethyl)-4-methyl-1,2,5-oxadiazole-3-carboxamide] | < 50 nM | –
< 50 nM | Cc1nonc1C(=O)NC(COC(C)(C)C(F)(F)F)c1nc2cc([C@@H](COC3CC3)N3C[C@@H](C(F)(F)F)NC3=O)ccc2[nH]1 (single isomer, unassigned) [Example 41, N—((R*)-1-(5-((S)-2-cyclopropoxy-1-((S)-2-oxo-4-(trifluoromethyl)imidazolidin-1-yl)ethyl)-1H-benzo[d]imidazol-2-yl)-2-((1,1,1-trifluoro-2-methylpropan-2-yl)oxy)ethyl)-4-methyl-1,2,5-oxadiazole-3-carboxamide] | < 50 nM | –
< 50 nM | Cc1nonc1C(=O)N[C@@H](COC(C)(C)C(F)(F)F)c1nc2cc(CN3C[C@](C)(C(F)(F)F)NC3=O)ccc2[nH]1 (relative stereo) [Example 57, 4-Methyl-N—((R*)-1-(5-(((R*)-4-methyl-2-oxo-4-(trifluoromethyl)imidazolidin-1-yl)methyl)-1H-benzo[d]imidazol-2-yl)-2-((1,1,1-trifluoro-2-methylpropan-2-yl)oxy)ethyl)-1,2,5-oxadiazole-3-carboxamide] | > 100 nM | –
< 50 nM | COC[C@H](c1ccc2[nH]c(C(COC(C)(C)C(F)(F)F)NC(=O)c3nonc3C)nc2c1)N1CC(F)(F)CNC1=O (single isomer, unassigned) [Example 34, N—((R*)-1-(5-((S)-1-(5,5-Difluoro-2-oxotetrahydropyrimidin-1(2H)-yl)-2-methoxyethyl)-1H-benzo[d]imidazol-2-yl)-2-((1,1,1-trifluoro-2-methylpropan-2-yl)oxy)ethyl)-4-methyl-1,2,5-oxadiazole-3-carboxamide] | < 50 nM | –

Second part, the compound before the results:

SMILES | IC50 [2] | IC50 ([1]; Homo sapiens, Keratinocyte) | IC50 [1]
Cc1nonc1C(=O)NC(c1nc2nc([C@@H](C3CC3)N3CC(F)(F)CNC3=O)ccc2[nH]1)[C@@H](C)O[C@H](C)C(F)(F)F (single isomer, unassigned) [Example 19, N-((1R*,2R)-1-(5-((R)-Cyclopropyl(5,5-difluoro-2-oxotetrahydropyrimidin-1(2H)-yl)methyl)-1H-imidazo[4,5-b]pyridin-2-yl)-2-(((R)-1,1,1-trifluoropropan-2-yl)oxy)propyl)-4-methyl-1,2,5-oxadiazole-3-carboxamide] | < 50 nM | 50 to 100 nM | –
CC(C)n1nccc1C(=O)N[C@@H](COC(C)(C)C(F)(F)F)c1nc2nc(CN3C[C@H](C(F)(F)F)NC3=O)ccc2[nH]1 (relative stereo) [Example 36, 1-Isopropyl-N—((R*)-1-(5-(((R*)-2-oxo-4-(trifluoromethyl)imidazolidin-1-yl)methyl)-1H-imidazo[4,5-b]pyridin-2-yl)-2-((1,1,1-trifluoro-2-methylpropan-2-yl)oxy)ethyl)-1H-pyrazole-5-carboxamide] | < 50 nM | < 50 nM | –
C[C@H](O[C@H](C)C(NC(=O)c1ccnn1C)c1nc2cc([C@@H](C3CC3)N3C[C@@H](C(F)(F)F)NC3=O)ccc2[nH]1)C(F)(F)F (single isomer, unassigned) [Example 14, N-((1R*,2R)-1-(5-((R)-Cyclopropyl((S)-2-oxo-4-(trifluoromethyl)imidazolidin-1-yl)methyl)-1H-benzo[d]imidazol-2-yl)-2-(((S)-1,1,1-trifluoropropan-2-yl)oxy)propyl)-1-methyl-1H-pyrazole-5-carboxamide] | < 50 nM | < 50 nM | –
[2H]C1([2H])[C@@H](C(F)(F)F)NC(=O)N1[C@@H](c1ccc2[nH]c([C@@H](NC(=O)c3nonc3C)[C@@H](C)O[C@@H](C)C(F)(F)F)nc2c1)C1CC1 (relative stereo) [Example 12, N-((1R*,2R)-1-(5-((R)-Cyclopropyl((S*)-2-oxo-4-(trifluoromethyl)imidazolidin-1-yl-5,5-d2)methyl)-1H-benzo[d]imidazol-2-yl)-2-(((S)-1,1,1-trifluoropropan-2-yl)oxy)propyl)-4-methyl-1,2,5-oxadiazole-3-carboxamide] | < 50 nM | – | < 50 nM
Cc1nonc1C(=O)N[C@@H](COC(C)(C)C(F)(F)F)c1nc2ccc(CN3CC(F)(F)CNC3=O)cc2[nH]1 [Example 28, (R)—N-(1-(6-((5,5-Difluoro-2-oxotetrahydropyrimidin-1(2H)-yl)methyl)-1H-benzo[d]imidazol-2-yl)-2-((1,1,1-trifluoro-2-methylpropan-2-yl)oxy)ethyl)-4-methyl-1,2,5-oxadiazole-3-carboxamide] | < 50 nM | < 50 nM | –
CC(C)(OC[C@H](NC(=O)c1nonc1C1CC1)c1nc2cc(CN3CC(C(F)(F)F)NC3=O)ccc2[nH]1)C(F)(F)F (stereo in doubt) [Example 33, 4-Cyclopropyl-N—((R)-1-(5-(((R*)-2-oxo-4-(trifluoromethyl)imidazolidin-1-yl)methyl)-1H-benzo[d]imidazol-2-yl)-2-((1,1,1-trifluoro-2-methylpropan-2-yl)oxy)ethyl)-1,2,5-oxadiazole-3-carboxamide] | 50 to 100 nM | > 100 nM | –
C[C@@H](O[C@H](C)C(F)(F)F)C(NC(=O)c1nonc1C1CC1)c1nc2nc([C@@H](C3CC3)N3CC(F)(F)CNC3=O)ccc2[nH]1 (single isomer, unassigned) [Example 20, 4-Cyclopropyl-N-((1R*,2R)-1-(5-((R)-cyclopropyl(5,5-difluoro-2-oxotetrahydropyrimidin-1(2H)-yl)methyl)-1H-imidazo[4,5-b]pyridin-2-yl)-2-(((R)-1,1,1-trifluoropropan-2-yl)oxy)propyl)-1,2,5-oxadiazole-3-carboxamide] | < 50 nM | < 50 nM | –
CC(C)n1ncnc1C(=O)N[C@@H](COC(C)(C)C(F)(F)F)c1nc2cc([C@@H](C3CC3)N3C[C@@H](C(F)(F)F)NC3=O)ccc2[nH]1 [Example 5, N—((R)-1-(5-((R)-Cyclopropyl((S)-2-oxo-4-(trifluoromethyl)imidazolidin-1-yl)methyl)-1H-benzo[d]imidazol-2-yl)-2-((1,1,1-trifluoro-2-methylpropan-2-yl)oxy)ethyl)-1-isopropyl-1H-1,2,4-triazole-5-carboxamide] | < 50 nM | < 50 nM | –
COC[C@H](c1ccc2[nH]c([C@@H](NC(=O)c3nonc3C)[C@@H](C)O[C@@H](C)C(F)(F)F)nc2c1)N1C[C@@H](C(F)(F)F)NC1=O [Example 62, N-((1R,2R)-1-(5-((S)-2-Methoxy-1-((S)-2-oxo-4-(trifluoromethyl)imidazolidin-1-yl)ethyl)-1H-benzo[d]imidazol-2-yl)-2-(((S)-1,1,1-trifluoropropan-2-yl)oxy)propyl)-4-methyl-1,2,5-oxadiazole-3-carboxamide] | < 50 nM | < 50 nM | –

Reference: patent US20250122181A1, “BENZIMIDAZOLES AS MODULATORS OF IL-17” (Janssen Pharmaceutica NV, priority 2021, published 2025)
